Read-outs that look alike come from different tables or passages of the source. Marks after values point to notes of the source that are not given here.

The conditions of series [1]: meso linkage is not cleaved by biological amines or thiols; cited from earlier work.
For series [2] the following is noted: PBS pH 7.4, cited from earlier work; for ε: reported data; for λabs max / λem max: spectral data from reference.
The conditions of series [3]: known from literature; cited from earlier work.
The conditions of series [4]: cited from earlier work; for QY / Brightness (fluorescence brightness = ε × QY): PBS pH 7.4; for QY: data from reference; for Brightness (fluorescence brightness = ε × QY) / Quantum yield: reported data; for Quantum yield: pH 7.4 PBS.
The nature of series [5]: Dye self-aggregation by absorption/excitation spectra. The series is classed as physicochemical. To be noted: in water / aqueous media, absorption spectra.
Description: Self-aggregation of heptamethine cyanine dyes is readily indicated by conversion of monomer absorption bands into aggregate bands, in this case blue-shifted H-aggregates.
A short description of series [6]: Quantum yield and fluorescence brightness relative to UL766. In kind it is physicochemical. The settings on record: for Brightness (fluorescence brightness = ε × QY): PBS pH 7.4, error ±15%; for Quantum yield: pH 7.4 PBS, relative to UL766, error ±10%. An excerpt:
The fluorescence spectrum of each solution was obtained with excitation at 730 nm, and the integrated area was used in the quantum yield calculation by the following equation:
[formula] where η is the refractive index of the solvent, I is the integrated fluorescence intensity, and A is the absorbance at a chosen wavelength. […]

Series [7] relates to integrin positive A549 cells. Kind of series: Cell uptake by fluorescence microscopy. The series is classed as cell-based, human. As for the experimental part: FIG. 19. […] The two targeted dyes contain a cyclic peptide cRGDfK sequence for targeting the overexpressed cell surface integrin receptors. The blocking experiments added 100 μM of free cRGDfK prior to the incubation with RGD probes. NIR heptamethine fluorescence is shown in green, and Hoechst nuclear stain is shown in blue. Scale bar=30 μm. (c) Quantification of intracellular mean fluorescence intensities as a measure of NIR dye internalization (6 micrographs per condition and 3 replicates). * indicates p<0.05, and ** p<0.01.
Cell Microscopy. For fluorescence microscopy, A549 cells were seeded and grown to 70% confluency on an 8-well chambered coverglass (Lab-Tek, Nunc, USA). […] For blocking, 100 μM of cRGDfK was added to the cells, 10 min prior to dye treatment and remained present during NIR dye incubation. After dye incubation, the cells were washed several times with PBS, fixed with 4% cold paraformaldehyde for 20 min at room temperature and washed again with PBS. […] Next, a triangle threshold was employed and used to calculate the average mean pixel intensity (MPI) where overall averages and SEM were calculated and plotted in GraphPad Prism. A total of 6 micrographs were evaluated per condition and each experiment was conducted in triplicate.

The nature of series [8]: Absorption and emission spectral properties of dyes. The series is classed as physicochemical. The settings on record: for ε: monomer band. As for the experimental part: General. Reagents and solvents were purchased from Sigma-Aldrich, VWR, Oakwood, Thermo Fisher and TCI and used without further purification unless stated otherwise. Anhydrous tetrahydrofuran was distilled with metal sodium and benzophenone. Column chromatography was performed using Biotage SNAP Ultra columns. ^1H, ^13C and ROESY NMR spectra were recorded on a Bruker 500 NMR spectrometer. Chemical shifts are presented in ppm and referenced by residual solvent peak. High-resolution mass spectrometry (HRMS) was performed using a time-of-flight (TOF) analyzer with electrospray ionization (ESI). Absorption spectra were recorded on an Evolution 201 UV/vis spectrometer with Thermo Insight software. Fluorescence spectra were collected on a Horiba Fluoromax-4 fluorometer with FluoroEssence software. Analyte solutions were prepared in HPLC grade water (Sigma-Aldrich), phosphate buffered saline (Thermo Fisher), fetal bovine serum (Sigma-Aldrich) or buffer B (575 mM NaCl, 37.5 mM NaH2PO4 and 0.75 mM EDTA in water, pH 7.5). All absorption and fluorescence spectra were collected using quartz cuvettes (1 mL, 1 cm path length; for emission and excitation spectra, slit width=3 nm).

The nature of series [9]: Photostability, Xenon lamp irradiation. The series is classed as physicochemical. As for the experimental part:
FIG. 2. Two separate photostability studies. (a) Lamp irradiation: Four separate cuvettes, each containing 1 μM dye in PBS buffer, pH 7.4, were irradiated by a 150 W Xenon lamp with a 620 nm long-pass filter. The plot of normalized dye absorbance versus time was fit to a one-phase exponential decay. […] The length scale bar on each NIR fluorescence image is 1 cm.
Photostability Measurements. Lamp Irradiation: A solution of dye (1 μM) in PBS buffer, pH 7.4, was placed in a 1×1×4 cm^3 cuvette that was exposed to air and irradiated at a distance of 3 cm by a 150 W Xenon lamp with a 620 nm long-pass filter. An absorbance spectrum was recorded every 10 min. The normalized maximum absorbance of dye was plotted against time and fitted to a non-linear regression, one-phase exponential decay. […] A 1.5 mL vial containing the solution was irradiated at a distance of 3 cm by a 150 W Xenon lamp with a 620 nm long-pass filter.

Series [10] is described as follows: Mouse biodistribution in normal mice. To be noted: 10 nmol. The series is classed as in vivo, SKH1 hairless mice. From the text:
FIG. 20. a) Representative whole-body NIR fluorescence images of living SKH1 hairless mice at 0, 1, and 2 hr after intravenous injection of either ICG or s775z (10 nmol). b) In vivo biodistribution of s775z and ICG in normal mice. The SKH1 hairless mice (N=4) received an intravenous injection of ICG or s775z (10 nmol) and were sacrificed after 2 hr. The mean pixel intensity (MPI) for each excised organ is relative to the MPI for thigh muscle from the same animal; error bars indicate ±SEM. * indicates p<0.05. Note: the y-axis is truncated.
Mouse Biodistribution. All animal experiments were conducted under protocols that were approved by the Notre Dame Institutional Animal Care and Use Committee. Female SKH1 hairless mice (N=4) were divided into two cohorts and received a retro-orbital injection of ICG or s775z (50 μL, 10 nmol). […] The mice were then injected with dye and imaged at 0, 1, and 2 hr. At 2 hr, the mice were anesthetized, sacrificed via cervical dislocation, and blood was collected from the heart. The lower cavity of the mice was then exposed and imaged. […] The images were pseduocolored “fire,” and an arbitrary maximum fluorescence value was chosen. […] The amount of dye was then quantified by manually drawing a region of interest around each organ. The MPI of each organ was measured and divided by the MPI for thigh muscle from the same animal.

Series [11] relates to subcutaneous tumor (human A549 cells). Kind of series: Mouse tumor imaging. The settings on record: A549 tumor mice, 10 nmol. The series is classed as in vivo, nude mice. How it is done: […]. The fluorescence mean pixel intensity (MPI) of two regions of interest (equal sizes) on the fluorescent images (tumor or background site on the opposite flank), at different post-injection time points, were measured using ImageJ2 software and used to calculate values for Tumor MPI, and Tumor-to-Background Ratio. * indicates p<0.05, ** p<0.01, and *** p<0.001.
Mouse Tumor Imaging. All animal experiments were conducted under protocols that were approved by the Notre Dame Institutional Animal Care and Use Committee. Female Foxn1 nude mice (N=8) were inoculated with A549 cells (1×10^6) in Corning Matrigel matrix on the right rear flank. […]. The mice were then injected with dye and imaged at 0, 0.5, 1, 2, and 3 hr. At 3 hr, the mice were anesthetized and sacrificed via cervical dislocation, and blood was collected from the heart. To simulate a surgery, the mice were imaged prior to surgery, the fluorescent tumor was fully removed, and the mice were imaged again. […] For image processing, the whole body and tumor images were pseudocolored “fire,” and an arbitrary maximum fluorescence value was chosen. Biodistribution analysis was performed by importing NIR fluorescence images of the excised organs from each mouse into ImageJ2 and the amount of dye in each organ was quantified by manually drawing a region of interest around each organ and determining the fluorescence MPI. […]

Turning to `CC1(C)C(/C=C/C2=C(Oc3ccc(S(=O)(=O)O)cc3)C(=C/C=C3/N(CCCCS(=O)(=O)O)c4ccc(S(=O)(=O)[O-])cc4C3(C)C)/CCC2)=[N+](CCCCCC(=O)O)c2ccc(S(=O)(=O)O)cc21` [CW800], the Stable to nucleophiles entry in series [1] is “No”. In addition, in [2], the ε is on record as 242,000 M^−1cm^−1, the λabs max is 775 nm and the λem max is recorded as 796 nm. Also, the “Change in serum under very similar conditions” value in [3] is reported as “degradation”. Further, in series [4], the QY is recorded as 0.090, the “Brightness (fluorescence brightness = ε × QY)” value (“Brightness” below) is given as 22,000 and the Quantum yield was 9.0%.
With `CC1(C)C(/C=C/C2=C(c3ccc(C(=O)NCCCC[C@@H]4NC(=O)[C@@H](Cc5ccccc5)NC(=O)[C@H](CC(=O)O)NC(=O)CNC(=O)[C@H](CCCNC(=N)N)NC4=O)cc3)C(=C/C=C3/N(CCC[N+](C)(C)C)c4ccc(S(=O)(=O)O)cc4C3(C)C)/CCC2)=[N+](CCC[N+](C)(C)C)c2ccc(S(=O)(=O)O)cc21` [Dye 756z-RGD], the Aggregation state entry in series [5] was “concentration-dependent mixture of fluorescent monomer and non-fluorescent H-aggregate”. In [6], the “Brightness” value is 16,000 and the Quantum yield is 10.7^[b] %. The “Cell uptake with blocking” value in series [7] (A549 cells pre-incubated with excess (100 μM) cRGDfK) is “successfully blocked”. Moreover, in series [7] (A549 cells, 10 μM dye, 1 hr, 37° C.), the Cell uptake result was “much higher cell uptake”. The “SS (Stokes shift)” value in [8] (PBS pH 7.4) is listed as 16 nm. Also, in [8] (PBS pH 7.4, room temperature), the “λabs max, aggregate (a) band” value was 682 (a)/ nm; the λem max came to 773 nm; the ε is listed as 147,000 M^−1cm^−1. In addition, the λabs max in series [8] (PBS pH 7.4, room temperature, monomer (m) band where an aggregate band is also listed) is listed as 757 (m) nm.
In the case of `CC1(C)C(/C=C/C=C/C=C/C=C2\N(CCCCS(=O)(=O)O)c3ccc4ccccc4c3C2(C)C)=[N+](CCCCS(=O)(=O)[O-])c2ccc3ccccc3c21` [ICG, Indocyanine Green], in series [6], the “Brightness” value is 1,600 and the Quantum yield was 2.3^[b] %. The half-life at 1 μM in [9] (PBS buffer in a cuvette exposed to air, pH 7.4 PBS, 150 W Xenon lamp irradiation, 620 nm long-pass filter, 23° C., 1 μM dye, read-out: t1/2, half-life of first-order decay (converted)) is 13.3 min. The “k, rate constant of first-order decay” value in series [9] (pH 7.4 PBS, 150 W Xenon lamp irradiation, 620 nm long-pass filter, 23° C., 1 μM dye) stood at 0.00087 s⁻¹. Moreover, the Order of photostabilities result in series [9] (separate cuvettes, dye in PBS, Xenon lamp >620 nm) is on record as “s775z>756z>UL766>ICG”. Further, the ε in series [8] (PBS pH 7.4, room temperature) is recorded as 71,000 M^−1cm^−1. The Clearance from bloodstream result in [10] (retro-orbital injection, live imaging over 2 hr) is listed as “quickly cleared from the mouse bloodstream”. The “Clearance pathway / biodistribution” value in series [10] (sacrificed after 2 hours) was “accumulated in the intestines and liver”.
Take `CC1(C)C(/C=C/C2=C(Oc3ccc(CCC(=O)O)cc3)C(=C/C=C3/N(CCC[N+](C)(C)C)c4ccc(S(=O)(=O)O)cc4C3(C)C)/CCC2)=[N+](CCC[N+](C)(C)C)c2ccc(S(=O)(=O)O)cc21` [ZW800-1]: the Stable to nucleophiles entry in series [1] is given as “No”. In [2], the ε is on record as 246,000 M^−1cm^−1, the λabs max is recorded as 770 nm and the λem max is given as 788 nm. Besides, the “Change in serum under very similar conditions” value in series [3] is “degradation”. Also, in series [4], the QY is given as 0.135, the “Brightness” value is 33,000 and the Quantum yield is given as 13.5%.
Regarding `COCCOCCOCCOCc1cn(Cc2cc(C(=O)NCCCC[C@@H]3NC(=O)[C@@H](Cc4ccccc4)NC(=O)[C@H](CC(=O)O)NC(=O)CNC(=O)[C@H](CCCNC(=N)N)NC3=O)cc(Cn3cc(COCCOCCOCCOC)nn3)c2C(=C\C=C\C2=[N+](CCC[N+](C)(C)C)c3ccc(S(=O)(=O)O)cc3C2(C)C)/C=C/C=C2/N(CCC[N+](C)(C)C)c3ccc(S(=O)(=O)O)cc3C2(C)C)nn1` [s775z-RGD], the “Clearance and background retention” value in [11] is “rapid, near-exclusive renal clearance from the bloodstream”.

Source of the values: US12466814B2, “Sterically shielded heptamethine cyanine dyes” (UNIVERSITY OF NOTRE DAME DU LAC, priority 2020, dated 2025).
